{"source": "patent US20190223483A1", "about": "“SENSORY MODIFIER COMPOUNDS” (CARGILL, INCORPORATED, priority 2017, published 2019)", "format_in_all_cases": "in vivo", "key": {"[1]": {"assay": "Roundtable assessment of astringency", "design": "key: 0 = none; 1 = trace/faint; 2 = slight; 3 = moderate; 4 = definite; 5 = strong; 6 = extreme", "protocol": "Roundtable assessment of botanical notes assigned a scale of 0 to 5 with a score of 0 indicating no botanical notes and a score of 5 indicating strong (0=none, 1=trace, 2=slight, 3=moderate, 4=definite, 5=strong).\nSolutions of steviol glycosides and sensory modifier compound were prepared at increasing ratios of sensory modifier to steviol glycoside by weight. […] The concentration of steviol glycosides was 700 ppm in each solution. The solutions were tested for astringency."}, "[2]": {"assay": "Roundtable assessment of off taste (scale 0 to 6)", "design": "key to Off taste / off taste score: 0 = none; 1 = trace/faint; 2 = slight; 3 = moderate; 4 = definite; 5 = strong; 6 = extreme", "experimental": "(§1) For other sweetness attributes, the solutions were tested by a panel of at least four individuals that are highly-trained in tasting steviol glycoside solutions. The highly-trained panelists used a roundtable methodology to assess each sweetness attribute. To test each solution, the highly-trained panelists dispensed approximately 2 mL of each solution into their own mouths by transfer pipet, dispersed the solution by moving their tongues, and recorded a value for the particular sweetness attribute being tested. Between tasting solutions, the panelists were able to cleanse their palates with water. For each sweetness attribute, the panelist agreed on a descriptive scale with relative intensities assigned for each sweetness attribute and then recorded the values for each sweetness attribute against this. For example, this roundtable assessment of sweetness linger assigned a scale of 0 to 6 with a score of 0 indicating no sweetness linger and a score of 6 indicating extreme sweetness linger. Roundtable assessment of sweetness linger assigned a scale of 0 to 6 with a score of 0 indicating no sweetness linger and a score of 6 indicating extreme sweetness linger (0=none, 1=trace, 2=slight, 3=moderate, 4=definite, 5=strong, 6=extreme). Roundtable assessment of rounded assigned a scale of 0 to 3 with a score of 0 indicating spikey and a score of 3 indicating desirable rounded (0=none, 1=mostly spikey, some rounded, 2=mostly rounded, some spikey, 3=rounded). Roundtable assessment of mouthfeel assigned a scale of 0 to 2 with a score of 0 indicating water and a score of 2 indicating syrupy (0=water, 1=sucrosey, 2=syrupy). Roundtable assessment of bitterness assigned a scale of 0 to 6 with a score of 0 indicating no bitterness and a score of 6 indicating extreme sweetness linger (0=none, 1=trace, 2=slight, 3=moderate, 4=definite, 5=strong, 6=extreme). Roundtable assessment of off tastes assigned a scale of 0 to 6 with a score of 0 indicating no bitterness and a score of 6 indicating extreme off tastes (0=none, 1=trace, 2=slight, 3=moderate, 4=definite, 5=strong, 6=extreme).\n(§2) A series of assays were carried out to characterize off taste (0=none, 1=trace/faint, 2=slight, 3=moderate, 4=definite, 5=strong, 6=extreme) of steviol glycoside compositions with sensory modifier compound using the roundtable methodology described in Example 1. […] Solutions of steviol glycosides and sensory modifier compound were prepared at increasing ratios of sensory modifier to steviol glycoside by weight. The steviol glycosides were RebA (4 glycoside groups), RebD (5 glycoside groups), RebM (6 glycoside groups), and OPS1-5(7 glycoside groups) and the sensory modifier compound was monocaffeoylquinic and dicaffeoylquinic acids prepared from yerba mate. The concentration of steviol glycosides was 700 ppm in each solution. The solutions were tested for off taste. Off taste included astringency, metallic, powdery, numbing, and vapory attributes."}, "[3]": {"assay": "Roundtable assessment of bitterness (scale 0 to 6)", "design": "key: 0 = none; 1 = trace/faint; 2 = slight; 3 = moderate; 4 = definite; 5 = strong; 6 = extreme", "experimental": "as §1\nas §2, with “bitterness” for “off taste”, “bitterness.” for “off taste. Off taste included astringency, metallic, powdery, numbing, and vapory attributes.”"}, "[4]": {"details": "steviol glycoside 700 ppm + yerba mate mono/dicaffeoylquinic acids 630 ppm"}, "[5]": {"details": "steviol glycoside 700 ppm + yerba mate mono/dicaffeoylquinic acids 946 ppm"}, "[6]": {"details": "steviol glycoside 700 ppm + yerba mate mono/dicaffeoylquinic acids […]"}, "[7]": {"details": "steviol glycoside 700 ppm, sensory modifier 0 ppm"}, "[8]": {"details": "RebA 700 ppm, higher concentrations of sensory modifier"}, "[9]": {"details": "steviol glycoside 700 ppm + yerba mate mono/dicaffeoylquinic acids 270 ppm"}, "[10]": {"details": "steviol glycoside 700 ppm + yerba mate mono/dicaffeoylquinic acids 540 ppm"}, "[11]": {"details": "steviol glycoside 700 ppm + yerba mate mono/dicaffeoylquinic acids 810 ppm"}, "[12]": {"details": "RebM 700 ppm + cichoric acid (tartaric backbone) 772 ppm"}, "[13]": {"details": "RebM 700 ppm + cichoric acid (tartaric backbone) […]"}, "[14]": {"details": "RebM 700 ppm + rosmarinic acid 195 ppm"}, "[15]": {"details": "RebM 700 ppm + rosmarinic acid 391 ppm"}, "[16]": {"details": "RebM 700 ppm + rosmarinic acid 586 ppm"}, "[17]": {"details": "steviol glycoside 700 ppm + yerba mate mono/dicaffeoylquinic acids 236 ppm"}, "[18]": {"details": "steviol glycoside 700 ppm + yerba mate mono/dicaffeoylquinic acids 300 ppm"}, "[19]": {"details": "steviol glycoside 700 ppm + yerba mate mono/dicaffeoylquinic acids 400 ppm"}, "[20]": {"details": "steviol glycoside 700 ppm + yerba mate mono/dicaffeoylquinic acids 472 ppm"}, "[21]": {"details": "steviol glycoside 700 ppm + yerba mate mono/dicaffeoylquinic acids 500 ppm"}, "[22]": {"details": "steviol glycoside 700 ppm + yerba mate mono/dicaffeoylquinic acids 600 ppm"}, "[23]": {"details": "steviol glycoside 700 ppm + yerba mate mono/dicaffeoylquinic acids 700 ppm"}, "[24]": {"details": "steviol glycoside 700 ppm + yerba mate mono/dicaffeoylquinic acids 708 ppm"}, "[25]": {"details": "steviol glycoside 700 ppm + yerba mate mono/dicaffeoylquinic acids 800 ppm"}, "[26]": {"details": "quinic, tartaric or 3-(3,4-dihydroxyphenyl)lactic acid backbone modifier above 200 ppm"}}, "note": "“Also recorded” adds a separate entry of the source."}
{"compound": "C=C1C[C@@]23CC[C@H]4[C@@](C)(CCC[C@@]4(C)C(=O)O[C@@H]4O[C@H](CO)[C@@H](O)[C@H](O)[C@H]4O)[C@@H]2CC[C@]1(O[C@@H]1O[C@H](CO)[C@@H](O)[C@H](O[C@@H]2O[C@H](CO)[C@@H](O)[C@H](O)[C@H]2O)[C@H]1O[C@@H]1O[C@H](CO)[C@@H](O)[C@H](O)[C@H]1O)C3", "note": "[RebA, Rebaudioside A]", "values": [{"measurement": "Astringency", "setting": "[1]; [4]", "value": 1}, {"measurement": "Astringency", "setting": "[1]; [5]", "value": 3}, {"measurement": "Astringency", "setting": "[1]; [6]", "value": "Not observed"}, {"measurement": "Astringency", "setting": "[1]; [7]", "value": "Not observed"}, {"measurement": "off taste score", "setting": "[2]; [8]", "value": 2}, {"measurement": "Off taste", "setting": "[2]; [4]", "value": 2}, {"measurement": "Off taste", "setting": "[2]; [5]", "value": 2}, {"measurement": "Off taste", "setting": "[2]; [6]", "value": 2}, {"measurement": "Off taste", "setting": "[2]; [7]", "value": 6}, {"measurement": "bitterness score", "setting": "[3]; [8]", "value": 3}, {"measurement": "Bitterness", "setting": "[3]; [4]", "value": 3}, {"measurement": "Bitterness", "setting": "[3]; [5]", "value": 3}, {"measurement": "Bitterness", "setting": "[3]; [6]", "value": 5}, {"measurement": "Bitterness", "setting": "[3]; [7]", "value": 6}]}
{"compound": "C=C1C[C@@]23CC[C@H]4[C@@](C)(CCC[C@@]4(C)C(=O)O[C@@H]4O[C@H](CO)[C@@H](O)[C@H](O)[C@H]4O[C@@H]4O[C@H](CO)[C@@H](O)[C@H](O)[C@H]4O)[C@@H]2CC[C@]1(O[C@@H]1O[C@H](CO)[C@@H](O)[C@H](O[C@@H]2O[C@H](CO)[C@@H](O)[C@H](O)[C@H]2O)[C@H]1O[C@@H]1O[C@H](CO)[C@@H](O)[C@H](O)[C@H]1O)C3", "note": "[RebD, Rebaudioside D]", "values": [{"measurement": "Astringency", "setting": "[1]; [9]", "value": 2}, {"measurement": "Astringency", "setting": "[1]; [10]", "value": 1}, {"measurement": "Astringency", "setting": "[1]; [11]", "value": 2}, {"measurement": "Astringency", "setting": "[1]; [7]", "value": "Not observed"}, {"measurement": "Off taste", "setting": "[2]; [9]", "value": 2}, {"measurement": "Off taste", "setting": "[2]; [7]", "value": 2}, {"measurement": "Bitterness", "setting": "[3]; [9]", "value": 0}, {"measurement": "Bitterness", "setting": "[3]; [10]", "value": 0}, {"measurement": "Bitterness", "setting": "[3]; [11]", "value": 0}, {"measurement": "Bitterness", "setting": "[3]; [7]", "value": 0}]}
{"compound": "C=C1C[C@@]23CC[C@H]4[C@@](C)(CCC[C@@]4(C)C(=O)O[C@@H]4O[C@H](CO)[C@@H](O)[C@H](O[C@@H]5O[C@H](CO)[C@@H](O)[C@H](O)[C@H]5O)[C@H]4O[C@@H]4O[C@H](CO)[C@@H](O)[C@H](O)[C@H]4O)[C@@H]2CC[C@]1(O[C@@H]1O[C@H](CO)[C@@H](O)[C@H](O[C@@H]2O[C@H](CO)[C@@H](O)[C@H](O)[C@H]2O)[C@H]1O[C@@H]1O[C@H](CO)[C@@H](O)[C@H](O)[C@H]1O)C3", "note": "[RebM, Rebaudioside M]", "values": [{"measurement": "Astringency", "setting": "[1]; RebM 700 ppm + cichoric acid (tartaric backbone) 514 ppm", "value": 0}, {"measurement": "Astringency", "setting": "[1]; [12]", "value": 4}, {"measurement": "Astringency", "setting": "[1]; [13]", "value": 0}, {"measurement": "Astringency", "setting": "[1]; [14]", "value": 0}, {"measurement": "Astringency", "setting": "[1]; [15]", "value": 0}, {"measurement": "Astringency", "setting": "[1]; [16]", "value": 0}, {"measurement": "Astringency", "setting": "[1]; RebM 700 ppm, 0 ppm to 700 ppm of quinic backbone modifier", "value": "no perceptible astringency; also recorded: imperceptible"}, {"measurement": "Astringency", "setting": "[1]; [17]", "value": 0}, {"measurement": "Astringency", "setting": "[1]; [18]", "value": "Not observed"}, {"measurement": "Astringency", "setting": "[1]; [19]", "value": "Not observed"}, {"measurement": "Astringency", "setting": "[1]; [20]", "value": 0}, {"measurement": "Astringency", "setting": "[1]; [21]", "value": 0}, {"measurement": "Astringency", "setting": "[1]; [22]", "value": "Not observed"}, {"measurement": "Astringency", "setting": "[1]; [23]", "value": "Not observed"}, {"measurement": "Astringency", "setting": "[1]; [24]", "value": 0}, {"measurement": "Astringency", "setting": "[1]; [25]", "value": "Not observed"}, {"measurement": "Astringency", "setting": "[1]; [7]", "value": 0}, {"measurement": "Off taste", "setting": "[2]; [13]", "value": 0}, {"measurement": "Off taste", "setting": "[2]; [14]", "value": 0}, {"measurement": "Off taste", "setting": "[2]; [16]", "value": 0}, {"measurement": "off taste", "setting": "[2]; RebM 700 ppm, about 200 ppm and above of sensory modifier", "value": "not perceptible; also recorded: between slight and none"}, {"measurement": "off taste", "setting": "[2]; [26]", "value": "none"}, {"measurement": "Off taste", "setting": "[2]; [17]", "value": 0}, {"measurement": "Off taste", "setting": "[2]; [18]", "value": 0}, {"measurement": "Off taste", "setting": "[2]; [19]", "value": 2}, {"measurement": "Off taste", "setting": "[2]; [20]", "value": 0}, {"measurement": "Off taste", "setting": "[2]; [21]", "value": 0}, {"measurement": "Off taste", "setting": "[2]; [22]", "value": 2}, {"measurement": "Off taste", "setting": "[2]; [23]", "value": 0}, {"measurement": "Off taste", "setting": "[2]; [24]", "value": 0}, {"measurement": "Off taste", "setting": "[2]; [25]", "value": 2}, {"measurement": "Off taste", "setting": "[2]; [7]", "value": 5}, {"measurement": "Bitterness", "setting": "[3]; [12]", "value": 0}, {"measurement": "Bitterness", "setting": "[3]; [13]", "value": 0}, {"measurement": "Bitterness", "setting": "[3]; [14]", "value": 0}, {"measurement": "Bitterness", "setting": "[3]; [15]", "value": 0}, {"measurement": "Bitterness", "setting": "[3]; RebM 700 ppm, about 200 ppm sensory modifier and above", "value": "not perceptible"}, {"measurement": "Sweetness linger", "setting": "[3]; Table 16: RebM 700 ppm + yerba mate mono/dicaffeoylquinic acids 236 ppm", "value": 0}, {"measurement": "Sweetness linger", "setting": "[3]; Table 16: RebM 700 ppm + yerba mate mono/dicaffeoylquinic acids 300 ppm", "value": 0}, {"measurement": "Sweetness linger", "setting": "[3]; Table 16: RebM 700 ppm + yerba mate mono/dicaffeoylquinic acids 400 ppm", "value": 0}, {"measurement": "Sweetness linger", "setting": "[3]; Table 16: RebM 700 ppm + yerba mate mono/dicaffeoylquinic acids 472 ppm", "value": 0}, {"measurement": "Sweetness linger", "setting": "[3]; Table 16: RebM 700 ppm + yerba mate mono/dicaffeoylquinic acids 500 ppm", "value": 0}, {"measurement": "Sweetness linger", "setting": "[3]; Table 16: RebM 700 ppm + yerba mate mono/dicaffeoylquinic acids 600 ppm", "value": 0}, {"measurement": "Sweetness linger", "setting": "[3]; Table 16: RebM 700 ppm + yerba mate mono/dicaffeoylquinic acids 700 ppm", "value": 0}, {"measurement": "Sweetness linger", "setting": "[3]; Table 16: RebM 700 ppm + yerba mate mono/dicaffeoylquinic acids 708 ppm", "value": 0}, {"measurement": "Sweetness linger", "setting": "[3]; Table 16: RebM 700 ppm + yerba mate mono/dicaffeoylquinic acids 800 ppm", "value": 0}, {"measurement": "Sweetness linger", "setting": "[3]; Table 16: RebM 700 ppm, sensory modifier 0 ppm", "value": 5}, {"measurement": "Bitterness", "setting": "[3]; [26]", "value": "none"}, {"measurement": "Bitterness", "setting": "[3]; [17]", "value": 0}, {"measurement": "Bitterness", "setting": "[3]; [20]", "value": 0}, {"measurement": "Bitterness", "setting": "[3]; [24]", "value": 0}, {"measurement": "Bitterness", "setting": "[3]; [7]", "value": 5}]}
